Experimental data reported in patent US10251959B2, “Oligomer-beta blocker conjugates” (Nektar Therapeutics, priority 2007, dated 2019).

target: T1, adrenergic, beta-1 (human) (Homo sapiens, UniProt P08588); test: adrenergic, beta-1 (human) binding assay; human recombinant Sf9 cells, membranes, Europium time-resolved fluorescence; type: biochemical; settings: Table 2, 30 nM isoproterenol
T1 construct: expressed in transfected cells; host or cells: Sf9 insect cells (membranes)
Method: The compound of interest is added to the membrane and then incubated for ten minutes. Thereafter, 100 nM GTP-Eu is added and incubated for an additional thirty minutes. Europium fluorescence is measured in a time-resolved fluorometer in order to ascertain any functional antagonist activity at the adrenergic beta 1 site. […] Briefly, Human recombinant Sf9 cells were used, wherein reactions were carried out in 50 mM HEPES [pH 7.4] containing 3 mM MgCl2, 0.1 μM GDP, 10 μm/mL Saoonin, and 1 mM DTT (dithiothreitol). The compound of interest was added to the membrane and then incubated for ten minutes at room temperature. Then, 30 nM of isoproterenol [final] to each well was added and allowed to incubate for an additional 30 minutes. Europium fluorescence was measured in a time-resolved fluorometer in order to ascertain any functional antagonist activity at the adrenergic beta-1 site. […] Briefly, Human recombinant Sf9 cells were used, wherein reactions were carried out in 50 mM HEPES [pH 7.4] containing 3 mM MgCl2, 0.1 μM GDP, 10 μm/mL Saoonin, and 1 mM DTT (dithiothreitol). The compound of interest was added to the membrane and then incubated for ten minutes at room temperature. Then, 30 nM of isoproterenol [final] to each well was added and allowed to incubate for an additional 30 minutes. Europium fluorescence was measured in a time-resolved fluorometer in order to ascertain any functional antagonist activity at the adrenergic beta-1 site.

T1 sequence (P08588 whole entry): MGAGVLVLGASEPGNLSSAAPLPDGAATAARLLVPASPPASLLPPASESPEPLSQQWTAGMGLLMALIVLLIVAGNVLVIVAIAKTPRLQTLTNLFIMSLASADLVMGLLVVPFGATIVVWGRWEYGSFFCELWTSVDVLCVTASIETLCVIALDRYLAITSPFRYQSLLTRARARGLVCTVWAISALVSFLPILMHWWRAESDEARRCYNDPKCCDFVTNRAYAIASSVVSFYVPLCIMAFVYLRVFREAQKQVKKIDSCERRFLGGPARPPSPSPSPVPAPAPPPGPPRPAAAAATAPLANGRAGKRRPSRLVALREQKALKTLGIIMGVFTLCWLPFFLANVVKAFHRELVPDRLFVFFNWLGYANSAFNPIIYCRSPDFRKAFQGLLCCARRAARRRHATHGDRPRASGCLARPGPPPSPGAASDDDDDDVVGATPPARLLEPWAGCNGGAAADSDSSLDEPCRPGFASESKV

SMILES	IC50
COCCOCCOCCO[C@@H](CNC(C)C)COc1cccc2ccccc12 [Propranolol Conjugate A]	1.79 µM
COCCOCCOCCOCC(=O)O[C@H](COc1cccc2ccccc12)CN(C(=O)COCCOCCOCCOC)C(C)C [Propranolol Conjugate B]	3.81 µM
COCCOCCOCCOCCOCCO[C@@H](CNC(C)C)COc1cccc2ccccc12 [Propranolol Conjugate C]	4.96 µM
COCCOCCOCCOCC(=O)O[C@@H](CNC(C)C)COc1cccc2ccccc12 [Propranolol Conjugate F]	5.39 µM

target: T2, adrenergic, beta-2 (human) (Homo sapiens, UniProt P07550); test: adrenergic, beta-2 (human) binding assay; HL-60 cells, isoproterenol, EIA read-out; type: cell-based; settings: Table 1, 300 μM IBMX, 100 nM isoproterenol, 20 minutes at room temperature
T2 construct: endogenous in cells; host or cells: HL-60 (human promyelocytic leukemia cells)
Method: With respect to beta-2 adrenergic activity, for example, human promyelocytic leukemia cells (HL-60 cells) can be washed and added to physiological buffer. […] Thereafter, 100 nM (final) isoproterenol is added. After twenty minutes at room temperature, cells are centrifuged, buffer removed, and 0.1M HCl is added to stop reaction. […] Pharmacol. 27(1):33-54.
Briefly, human promyelocytic leukemia cells (HL-60 cells) were washed and physiological buffer was added before analysis. To this was added 300 μM IBMX to inhibit phosphodiesterase. […] Cells were then centrifuged, buffer removed and 0.1 M HCL was added to stop the reaction.

T2 sequence (P07550 whole entry): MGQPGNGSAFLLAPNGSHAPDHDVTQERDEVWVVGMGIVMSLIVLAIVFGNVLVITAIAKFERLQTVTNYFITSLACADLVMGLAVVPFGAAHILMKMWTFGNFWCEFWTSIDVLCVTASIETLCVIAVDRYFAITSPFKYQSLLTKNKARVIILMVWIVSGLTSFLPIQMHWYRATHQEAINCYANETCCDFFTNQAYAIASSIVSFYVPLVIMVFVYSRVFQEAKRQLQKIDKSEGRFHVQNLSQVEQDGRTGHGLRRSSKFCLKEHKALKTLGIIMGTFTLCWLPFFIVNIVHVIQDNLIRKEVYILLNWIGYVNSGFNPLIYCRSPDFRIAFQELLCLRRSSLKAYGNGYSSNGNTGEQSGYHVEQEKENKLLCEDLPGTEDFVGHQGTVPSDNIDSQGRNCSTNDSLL

SMILES	IC50
COCCOCCOCCO[C@@H](CNC(C)C)COc1cccc2ccccc12 [Propranolol Conjugate A]	112 nM
COCCOCCOCCOCC(=O)O[C@H](COc1cccc2ccccc12)CN(C(=O)COCCOCCOCCOC)C(C)C [Propranolol Conjugate B]	13200 nM
COCCOCCOCCOCCOCCO[C@@H](CNC(C)C)COc1cccc2ccccc12 [Propranolol Conjugate C]	339 nM
COCCOCCOCCOCCOCCOCCOCCO[C@@H](CNC(C)C)COc1cccc2ccccc12 [Propranolol Conjugate D]	378 nM
COCCOCCOCCOCCOCCOCCOCCOCC(=O)O[C@@H](CNC(C)C)COc1cccc2ccccc12 [Propranolol Conjugate E]	1680 nM
COCCOCCOCCOCC(=O)O[C@@H](CNC(C)C)COc1cccc2ccccc12 [Propranolol Conjugate F]	1660 nM

same assay, conditions: Table 3, 300 μM IBMX, 100 nM isoproterenol, 20 minutes at room temperature

SMILES	IC50
COCCOCCOCCOCCOCCOC(CNC(C)(C)C)COc1nsnc1N1CCOCC1 (stereo not shown) [Timolol Compound B]	1290 nM
COCCOCCOCCOCCOCCOCCOCCOC(CNC(C)(C)C)COc1nsnc1N1CCOCC1 (stereo not shown) [Timolol Compound C]	603 nM
COCCOCCOCCOCCOCCOCCOCCOCCOC(CNC(C)(C)C)COc1nsnc1N1CCOCC1 (stereo not shown) [Timolol Compound D]	629 nM
